# Test system: OVSAHO cells
# Test: cell viability of OVSAHO cells
# Assay type: cell-based
# Settings: for effect of combining the drug with 1 on inhibiting OVSAHO cells: compared with 1 alone; for 24 h cytotoxicity against OVSAHO: drug alone
Compound,"effect of combining the drug with 1 on inhibiting OVSAHO cells (combined with 1 (20 μM), 24 h)",also measured
CC(C)(C)c1ccc(S(=O)(=O)/C=C/C#N)cc1 [BAY11–7085],slightly enhances,–
"CC(C)C[C@H](NC(=O)[C@H](Cc1ccccc1)NC(=O)c1cnccn1)B(O)O [BTZ, bortezomib]",No inhibition enhancement,–
COC(=O)[C@@]1(O)C[C@H]2O[C@]1(C)n1c3ccccc3c3c4c(c5c6ccccc6n2c5c31)C(=O)NC4 [K252A],slightly enhances,–
O=C(C1CC1)N1CCN(Cn2sc3ccccc3c2=O)CC1 [LOC14],No inhibition enhancement,–
N.N.[Cl][Pt][Cl] [cisplatin],slightly enhances,–
COc1cccc2c1C(=O)c1c(O)c3c(c(O)c1C2=O)C[C@@](O)(C(=O)CO)C[C@@H]3O[C@H]1C[C@H](N)[C@H](O)[C@H](C)O1 [doxorubicin],–,"cell viability of OVSAHO treated with 1 combined with the drug (combined with 1 (20 μM), 24 h): ~20%; 24 h cytotoxicity against OVSAHO (1.25 μM): around 75%; 24 h cytotoxicity against OVSAHO (2.5 μM): around 75%; 24 h cytotoxicity against OVSAHO (5 μM): around 75%"
CC(=O)O[C@H]1C(=O)[C@@]2(C)[C@H]([C@H](OC(=O)c3ccccc3)[C@]3(O)C[C@H](OC(=O)[C@H](O)[C@@H](NC(=O)c4ccccc4)c4ccccc4)C(C)=C1C3(C)C)[C@]1(OC(C)=O)CO[C@@H]1C[C@@H]2O [paclitaxel],No inhibition enhancement,–
Cn1ncnc1[C@H]1c2n[nH]c(=O)c3cc(F)cc(c23)N[C@@H]1c1ccc(F)cc1 [talazoparib],No inhibition enhancement,–
PACMA31,No inhibition enhancement,–

# From PMC10614160 (Journal of medicinal chemistry, 2023)
